Source: patent US20250186554A1, “FORMULATIONS COMPRISING ACID-NEUTRALIZING POLYMER FOR ORAL ADMINISTRATION OF GLUCAGON-LIKE PEPTIDE-1 AND ANALOGS THEREOF” (Entera Bio Ltd., priority 2022, published 2025)

Assays:
[1] = pH upon addition of test substance to 0.1 M HCl solution (pH 1.2), pH meter; format: physicochemical
Description: Test substances were dissolved in various volumes of 0.1 M HCl solution (pH 1.2) at concentrations of 1, 2, 4, 10, 20, 50, 100 and 150 mg/ml. The solution pH was determined using an MP-103 pH-meter (MRC, Israel) equipped with ELC-10-00 electrode (MRC, Israel) or with a thin electrode HI1083 (HANNA instruments Inc.), shortly after dissolution and up to 26 hours later in order to ensure that the pH remained stable. The highest pH value obtained during the experimental time period was recorded in order to compare the acid-neutralizing capacity of each substance.
SNAC and the basic polymers sodium alginate, sodium carboxymethylcellulose in non-crosslinked (Na-CMC) and crosslinked (croscarmellose sodium, CCS) forms, and sodium starch glycolate (SSG) were dissolved in various volumes of 0.1 M HCl solution (pH 1.2) at concentrations of 1, 2, 4, 10, 20, 50, 100 and 150 mg/ml, and the solution pH was determined using an MP-103 pH-meter (MRC, Israel) equipped with ELC-10-00 electrode (MRC, Israel), as described in the Materials and Methods section hereinabove.
In order to obtain a beneficial rise in pH with a reduced loss of the active form of the absorption enhancer, the effect of various concentrations of different polymers containing carboxylate groups (sodium alginate, sodium starch glycolate, sodium carboxymethylcellulose, and croscarmellose sodium) on pH upon addition to a 0.1 M HCl solution (pH 1.2) was also evaluated. FIG. 2A presents pH values determined using an MP-103 pH-meter (MRC, Israel) equipped with ELC-10-00 electrode (MRC, Israel) and FIG. 2B presents pH values determined using an MP-103 pH-meter (MRC, Israel) equipped with a thin electrode HI1083 (HANNA instruments Inc.).

[2] = in vivo; cited from earlier work

Row | pH 5 minutes after dissolution ([1]; 10 mg/ml SNAC added to HCl solution (pH 1.2)) | pH 5 minutes after dissolution ([1]; 20 mg/ml SNAC added to HCl solution (pH 1.2)) | pH 5 minutes after dissolution ([1]; 100 mg/ml SNAC added to HCl solution (pH 1.2)) | Compound | half-life [2]
1 | about 1.5 | 6.5 | about 7.5 | O=C(O)CCCCCCCNC(=O)c1ccccc1O [SNAC, sodium 8-N-(2-hydroxybenzoyl)aminocaprylate] | –
2 | – | – | – | Semaglutide: fatty acid derivative of a GLP-1 homolog | about 7 days
